Tests used:
[1] = tested on: HCV replicon RNA (GenBank Accession No. AJ242654); test: HCV Replicon Assay (replicon RNA reduction and/or Fluc reporter signal); type: cell-based, Hepatitis C virus; details: Hepatitis C virus, 72 h, replicon-containing cells cultured with test compound for up to 3 days
Outline: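 Bicistronic replicon-containing cells cultured with compound for up to 3 days, with interferon as positive control. Inhibition quantified by replicon RNA reduction and/or Fluc reporter signal; IC50 values generally derived from replicon RNA reduction.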

Row | SMILES | melting point [°C] | IC50 [1] [nM]
1 | Cc1cc2c(C#N)c(-c3ccc(S(=O)(=O)N[C@@H](C)C(F)(F)F)cn3)n(C3CCC3)c2cn1 [Cpd 165, 6-(3-cyano-1-cyclobutyl-5-methyl-1H-pyrrolo[2,3-c]pyridin-2-yl)-N-[(2S)-1,1,1-trifluoropropan-2-yl]pyridine-3-sulfonamide] | 185 to 188 | 500 to 2000
2 | Cc1cc2c(C#N)c(-c3ccc(S(=O)(=O)N[C@H](C)C(F)(F)F)cn3)n(C3CCC3)c2cn1 [Cpd 166, 6-(3-cyano-1-cyclobutyl-5-methyl-1H-pyrrolo[2,3-c]pyridin-2-yl)-N-[(2R)-1,1,1-trifluoropropan-2-yl]pyridine-3-sulfonamide] | 195 to 198 | < 500
3 | Cc1cc2c(C#N)c(-c3ccc(S(=O)(=O)N[C@@H](C)C(F)(F)F)cc3)n(C3CCC3)c2cn1 [Cpd 167, 4-(3-cyano-1-cyclobutyl-5-methyl-1H-pyrrolo[2,3-c]pyridin-2-yl)-N-[(2S)-1,1,1-trifluoropropan-2-yl]benzenesulfonamide] | 188 to 191 | < 500
4 | Cc1cc2c(C#N)c(-c3ccc(S(=O)(=O)NC4(C)CC4)cn3)n(C3CCC3)c2cn1 [Cpd 168, 6-(3-cyano-1-cyclobutyl-5-methyl-1H-pyrrolo[2,3-c]pyridine-2-yl)-N-(1-methylcyclopropyl)pyridine-3-sulfonamide] | 185 to 190 | < 500
5 | C[C@H](NS(=O)(=O)c1ccc(-c2c(C#N)c3cc(F)cnc3n2C2CCC2)nc1)C(F)(F)F [Cpd 169, 6-(3-cyano-1-cyclobutyl-5-fluoro-1H-pyrrolo[2,3-b]pyridin-2-yl)-N-[(2S)-1,1,1-trifluoropropan-2-yl]pyridine-3-sulfonamide] | 172 to 174 | < 500
6 | Cc1cnc2c(C#N)c(-c3ccc(S(=O)(=O)N[C@@H](C)C(F)(F)F)cn3)n(C3CCCC3)c2c1 [Cpd 170, 6-(3-cyano-1-cyclopentyl-6-methyl-1H-pyrrolo[3,2-b]pyridin-2-yl)-N-[(2S)-1,1,1-trifluoropropan-2-yl]pyridine-3-sulfonamide] | 210 to 212 | < 500
7 | Cc1cnc2c(C#N)c(-c3ccc(S(=O)(=O)N[C@H](C)C(F)(F)F)cn3)n(C3CCCC3)c2c1 [Cpd 171, 6-(3-cyano-1-cyclopentyl-6-methyl-1H-pyrrolo[3,2-b]pyridin-2-yl)-N-[(2R)-1,1,1-trifluoropropan-2-yl]pyridine-3-sulfonamide] | 215 to 217 | < 500
8 | Cc1cnc2c(C#N)c(-c3ccc(S(=O)(=O)NC4(C(F)(F)F)CC4)cn3)n(C3CCCC3)c2c1 [Cpd 172, 6-(3-cyano-1-cyclopentyl-6-methyl-1H-pyrrolo[3,2-b]pyridin-2-yl)-N-[1-(trifluoromethyl)cyclopropyl]pyridine-3-sulfonamide] | 249 to 251 | < 500
9 | Cc1cnc2c(C#N)c(-c3ccc(S(=O)(=O)NC(C)(C)C(F)(F)F)cn3)n(C3CCCC3)c2c1 [Cpd 173, 6-(3-cyano-1-cyclopentyl-6-methyl-1H-pyrrolo[3,2-b]pyridin-2-yl)-N-(1,1,1-trifluoro-2-methylpropan-2-yl)pyridine-3-sulfonamide] | 265 to 267 | < 500
10 | Cc1cnc2c(C#N)c(-c3ccc(S(=O)(=O)NC4(C)CC4)cn3)n(C3CCCC3)c2c1 [Cpd 174, 6-(3-cyano-1-cyclopentyl-6-methyl-1H-pyrrolo[3,2-b]pyridin-2-yl)-N-(1-methylcyclopropyl)pyridine-3-sulfonamide] | 215 to 217 | < 500
11 | Cc1cnc2c(C#N)c(-c3ccc(S(=O)(=O)NC(C)(C)C)cn3)n(C3CCCC3)c2c1 [Cpd 175, N-tert-butyl-6-(3-cyano-1-cyclopentyl-6-methyl-1H-pyrrolo[3,2-b]pyridin-2-yl)pyridine-3-sulfonamide] | 267 to 269 | < 500
12 | Cc1cnc2c(C#N)c(-c3ccc(S(=O)(=O)NC(CF)CF)cn3)n(C3CCCC3)c2c1 [Cpd 176, 6-(3-cyano-1-cyclopentyl-6-methyl-1H-pyrrolo[3,2-b]pyridin-2-yl)-N-(1,3-difluoropropan-2-yl)pyridine-3-sulfonamide] | 248 to 249 | < 500
13 | Cc1cnc2c(C#N)c(-c3ncc(S(=O)(=O)NC(CF)CF)cn3)n(C3CCCC3)c2c1 [Cpd 177, 2-(3-cyano-1-cyclopentyl-6-methyl-1H-pyrrolo[3,2-b]pyridin-2-yl)-N-(1,3-difluoropropan-2-yl)pyrimidine-5-sulfonamide] | 256 to 258 | < 500
14 | Cc1cnc2c(C#N)c(-c3ncc(S(=O)(=O)NC(C)C)cn3)n(C3CCCC3)c2c1 [Cpd 178, 2-(3-cyano-1-cyclopentyl-6-methyl-1H-pyrrolo[3,2-b]pyridin-2-yl)-N-(propan-2-yl)pyrimidine-5-sulfonamide] | 263 to 265 | < 500
15 | Cc1cnc2c(C#N)c(-c3ncc(S(=O)(=O)N[C@@H](C)C(F)(F)F)cn3)n(C3CCCC3)c2c1 [Cpd 179, 2-(3-cyano-1-cyclopentyl-6-methyl-1H-pyrrolo[3,2-b]pyridin-2-yl)-N-[(2S)-1,1,1-trifluoropropan-2-yl]pyrimidine-5-sulfonamide] | 262 to 264 | < 500
16 | Cc1cnc2c(C#N)c(-c3ccc(S(=O)(=O)N[C@@H](C)C(F)(F)F)cc3)n(C3CCCC3)c2c1 [Cpd 180, 4-(3-cyano-1-cyclopentyl-6-methyl-1H-pyrrolo[3,2-b]pyridin-2-yl)-N-[(2S)-1,1,1-trifluoropropan-2-yl]benzenesulfonamide] | 278 to 279 | 500 to 2000
17 | Cc1cnc2c(C#N)c(-c3ccc(S(=O)(=O)N[C@H](C)C(F)(F)F)cc3)n(C3CCCC3)c2c1 [Cpd 181, 4-(3-cyano-1-cyclopentyl-6-methyl-1H-pyrrolo[3,2-b]pyridin-2-yl)-N-[(2R)-1,1,1-trifluoropropan-2-yl]benzenesulfonamide] | 281 to 283 | < 500
18 | CCc1cnc2c(c1)c(C#N)c(-c1ccc(S(=O)(=O)NC(C)(C)C(F)(F)F)cc1)n2C1CCC1 [Cpd 182, 4-(3-cyano-1-cyclobutyl-5-ethyl-1H-pyrrolo[2,3-b]pyridin-2-yl)-N-(1,1,1-trifluoro-2-methylpropan-2-yl)benzenesulfonamide] | 190 to 195 | < 500
19 | CCc1cnc2c(c1)c(C#N)c(-c1ccc(S(=O)(=O)NC3(C(F)(F)F)CC3)cc1)n2C1CCC1 [Cpd 183, 4-(3-cyano-1-cyclobutyl-5-ethyl-1H-pyrrolo[2,3-b]pyridin-2-yl)-N-[1-(trifluoromethyl)cyclopropyl]benzenesulfonamide] | 161 to 168 | 500 to 2000
20 | CCc1cnc2c(c1)c(C#N)c(-c1ccc(S(=O)(=O)NC3(C(F)(F)F)CC3)cn1)n2C1CCC1 [Cpd 184, 6-(3-cyano-1-cyclobutyl-5-ethyl-1H-pyrrolo[2,3-b]pyridin-2-yl)-N-[1-(trifluoromethyl)cyclopropyl]pyridine-3-sulfonamide] | 216 to 221 | < 500
21 | CCc1cnc2c(c1)c(C#N)c(-c1ccc(S(=O)(=O)NC(C)(C)C)cc1)n2C1CCC1 [Cpd 185, N-tert-butyl-4-(3-cyano-1-cyclobutyl-5-ethyl-1H-pyrrolo[2,3-b]pyridin-2-yl)benzenesulfonamide] | 190 to 196 | < 500
22 | CCc1cnc2c(c1)c(C#N)c(-c1ccc(S(=O)(=O)NC3(C)CC3)cc1)n2C1CCC1 [Cpd 187, 4-(3-cyano-1-cyclobutyl-5-ethyl-1H-pyrrolo[2,3-b]pyridin-2-yl)-N-(1-methylcyclopropyl)benzenesulfonamide] | 157 to 163 | < 500
23 | CCc1cnc2c(c1)c(C#N)c(-c1ccc(S(=O)(=O)NC(CF)CF)cc1)n2C1CCC1 [Cpd 190, 4-(3-cyano-1-cyclobutyl-5-ethyl-1H-pyrrolo[2,3-b]pyridin-2-yl)-N-(1,3-difluoropropan-2-yl)benzenesulfonamide] | 165 to 171 | < 500
24 | CCc1cnc2c(c1)c(C#N)c(-c1ccc(S(=O)(=O)NC(CF)CF)cn1)n2C1CCC1 [Cpd 191, 6-(3-cyano-1-cyclobutyl-5-ethyl-1H-pyrrolo[2,3-b]pyridin-2-yl)-N-(1,3-difluoropropan-2-yl)pyridine-3-sulfonamide] | 157 to 165 | 500 to 2000
25 | CCc1cnc2c(c1)c(C#N)c(-c1ccc(S(=O)(=O)NC3CCC3)cn1)n2C1CCC1 [Cpd 194, 6-(3-cyano-1-cyclobutyl-5-ethyl-1H-pyrrolo[2,3-b]pyridin-2-yl)-N-cyclobutylpyridine-3-sulfonamide] | 168 to 177 | < 500
26 | CCc1cnc2c(c1)c(C#N)c(-c1ccc(S(=O)(=O)NC(C)C)nc1)n2C1CCC1 [Cpd 195, 5-(3-cyano-1-cyclobutyl-5-ethyl-1H-pyrrolo[2,3-b]pyridin-2-yl)-N-(propan-2-yl)pyridine-2-sulfonamide] | 195 to 202 | < 500
27 | CCc1cnc2c(c1)c(C#N)c(-c1ncc(S(=O)(=O)NC(C)C)cn1)n2C1CCC1 [Cpd 196, 2-(3-cyano-1-cyclobutyl-5-ethyl-1H-pyrrolo[2,3-b]pyridin-2-yl)-N-(propan-2-yl)pyrimidine-5-sulfonamide] | 170 to 178 | < 500
28 | C[C@@H](NS(=O)(=O)c1ccc(-c2c(C#N)c3cc(OC(F)F)cnc3n2C2CCC2)nc1)C(F)(F)F [Cpd 197, 6-[3-cyano-1-cyclobutyl-5-(difluoromethoxy)-1H-pyrrolo[2,3-b]pyridin-2-yl]-N-[(2R)-1,1,1-trifluoropropan-2-yl]pyridine-3-sulfonamide] | 149 to 151 | < 500

Reference: patent US9593108B2, “Compounds and methods for antiviral treatment” (PTC Therapeutics, Inc., priority 2009, dated 2017)
